# Earlier results, collected in patent US20100119604A1, “Solid drug formulation and device for storage and controlled delivery thereof” (BOSTON SCIENTIFIC SCIMED, INC., priority 2003, published 2010).
# Counter-ions that a name gives are not always drawn.
# Details: daily exposure limit of excipient / residual solvent per ICH Guideline Q3C
row,Compound,Daily limit
1,"CC(Cl)(Cl)Cl [1,1,1-Trichloroethane]",15 mg
2,"ClC=C(Cl)Cl [1,1,2-Trichloroethene]",0.8 mg
3,"C=C(Cl)Cl [1,1-Dichloroethene]",0.08 mg
4,"ClCCCl [1,2-Dichloroethane]",0.05 mg
5,"COCCOC [1,2-Dimethoxyethane]",1.0 mg
6,CCOCCO [2-Ethoxyethanol],1.6 mg
7,COCCO [2-Methoxyethanol],0.5 mg
8,CC(=O)O [Acetic acid],50 mg
9,CC(C)=O [Acetone],50 mg
10,CC#N [Acetonitrile],4.1 mg
11,COc1ccccc1 [Anisole],50 mg
12,c1ccccc1 [Benzene],0.02 mg
13,CCCCOC(C)=O [Butyl acetate],50 mg
14,ClC(Cl)(Cl)Cl [Carbon tetrachloride],0.04 mg
15,Clc1ccccc1 [Chlorobenzene],3.6 mg
16,CC(C)c1ccccc1 [Cumene],50 mg
17,C1CCCCC1 [Cyclohexane],38.8 mg
18,ClCCl [Dichloromethane],6.0 mg
19,C[S+](C)[O-] [Dimethyl sulfoxide],50 mg
20,CCO [Ethanol],50 mg
21,CCOCC [Ethyl ether],50 mg
22,CCOC=O [Ethyl formate],50 mg

row,Compound,Daily limit
1,OCCO [Ethyleneglycol],6.2 mg
2,NC=O [Formamide],2.2 mg
3,O=CO [Formic acid],50 mg
4,"CCCCCO [Formulation 1-Pentanol, 1-Pentanol]",50 mg
5,"CCCO [Formulation 1-Propanol, 1-Propanol]",50 mg
6,"CCC(C)O (stereo not shown) [Formulation 2-Butanol, 2-Butanol]",50 mg
7,CCCCCCC [Heptane],50 mg
8,CCCCCC [Hexane],2.9 mg
9,COC(C)=O [Methyl acetate],50 mg
10,CCCCC(C)=O [Methylbutyl ketone],0.5 mg
11,CC1CCCCC1 [Methylcyclohexane],11.8 mg
12,CC(=O)CC(C)C [Methylisobutyl ketone],50 mg
13,"CN(C)C=O [N,N-Dimethylformamide]",8.8 mg
14,CN1CCCC1=O [N-Methylpyrrolidone],5.3 mg
15,C[N+](=O)[O-] [Nitromethane],0.5 mg
16,CCCOC(C)=O [Propyl acetate],50 mg
17,c1ccncc1 [Pyridine],2.0 mg
18,C1CCOC1 [Tetrahydrofuran],7.2 mg
19,c1ccc2c(c1)CCCC2 [Tetralin],1.0 mg
20,COC(C)(C)C [tert-Butylmethyl ether],50 mg
21,Xylene,21.7 mg
